Experimental data: ChEMBL document CHEMBL1275603, “Incidence and antimicrobial susceptibility of Escherichia coli and Klebsiella pneumoniae with extended-spectrum beta-lactamases in community- and hospital-associated intra-abdominal infections in Europe: results of the 2008 Study for Monitoring Antimicrobial Resistance Trends (SMART)” (2010)

Legend:
Format in all cases: functional
[1] = system: Klebsiella pneumoniae; test: Antimicrobial activity against community-acquired Klebsiella pneumoniae expressing extended spectrum beta-lactamase obtained from patient with intra-abdominal infection assessed as susceptible isolates by EUCAST method
[2] = system: Escherichia coli; test: Antimicrobial activity against hospital-acquired Escherichia coli expressing extended spectrum beta-lactamase obtained from patient with intra-abdominal infection assessed as susceptible isolates by EUCAST method
[3] = system: Klebsiella pneumoniae; test: Antimicrobial activity against community-acquired Klebsiella pneumoniae obtained from patient with intra-abdominal infection assessed as susceptible isolates by EUCAST method
[4] = system: Escherichia coli; test: Antimicrobial activity against community-acquired Escherichia coli expressing extended spectrum beta-lactamase obtained from patient with intra-abdominal infection assessed as susceptible isolates by EUCAST method
[5] = system: Escherichia coli; test: Antimicrobial activity against community-acquired Escherichia coli obtained from patient with intra-abdominal infection assessed as susceptible isolates by EUCAST method
[6] = system: Klebsiella pneumoniae; test: Antimicrobial activity against hospital-acquired Klebsiella pneumoniae expressing extended spectrum beta-lactamase obtained from patient with intra-abdominal infection assessed as susceptible isolates by EUCAST method
[7] = system: Escherichia coli; test: Antimicrobial activity against hospital-acquired Escherichia coli obtained from patient with intra-abdominal infection assessed as susceptible isolates by EUCAST method
[8] = system: Klebsiella pneumoniae; test: Antimicrobial activity against hospital-acquired Klebsiella pneumoniae obtained from patient with intra-abdominal infection assessed as susceptible isolates by EUCAST method
[9] = system: Escherichia coli; test: Antimicrobial activity against hospital-acquired Escherichia coli expressing extended spectrum beta-lactamase obtained from patient with intra-abdominal infection assessed as susceptible isolates by EUCAST method in presence of beta-lactamase inhibitor Sulbactam
[10] = system: Klebsiella pneumoniae; test: Antimicrobial activity against hospital-acquired Klebsiella pneumoniae expressing extended spectrum beta-lactamase obtained from patient with intra-abdominal infection assessed as susceptible isolates by EUCAST method in presence of beta-lactamase inhibitor Sulbactam
[11] = system: Klebsiella pneumoniae; test: Antimicrobial activity against community-acquired Klebsiella pneumoniae expressing extended spectrum beta-lactamase obtained from patient with intra-abdominal infection assessed as susceptible isolates by EUCAST method in presence of beta-lactamase inhibitor Sulbactam
[12] = system: Escherichia coli; test: Antimicrobial activity against hospital-acquired Escherichia coli obtained from patient with intra-abdominal infection assessed as susceptible isolates by EUCAST method in presence of beta-lactamase inhibitor Sulbactam
[13] = system: Escherichia coli; test: Antimicrobial activity against community-acquired Escherichia coli obtained from patient with intra-abdominal infection assessed as susceptible isolates by EUCAST method in presence of beta-lactamase inhibitor Sulbactam
[14] = system: Klebsiella pneumoniae; test: Antimicrobial activity against hospital-acquired Klebsiella pneumoniae obtained from patient with intra-abdominal infection assessed as susceptible isolates by EUCAST method in presence of beta-lactamase inhibitor Sulbactam
[15] = system: Escherichia coli; test: Antimicrobial activity against community-acquired Escherichia coli expressing extended spectrum beta-lactamase obtained from patient with intra-abdominal infection assessed as susceptible isolates by EUCAST method in presence of beta-lactamase inhibitor Sulbactam
[16] = system: Klebsiella pneumoniae; test: Antimicrobial activity against community-acquired Klebsiella pneumoniae obtained from patient with intra-abdominal infection assessed as susceptible isolates by EUCAST method in presence of beta-lactamase inhibitor Sulbactam

Compound `C[C@@H](O)[C@H]1C(=O)N2C(C(=O)O)=C(SCCNC=N)C[C@H]12` [IMIPENEM ANHYDROUS] has an Activity [1] of 100%, an Activity [2] of 100% and an Activity [3] of 100%. It also gave an Activity [4] of 100%, an Activity [5] of 99.8% and an Activity [6] of 89.4%. The Activity [7] was 99.6% and the Activity [8] was 94.9%.
Compound `O=C(O)c1cn(C2CC2)c2cc(N3CCNCC3)c(F)cc2c1=O` [CIPROFLOXACIN] has an Activity [1] of 50%, an Activity [2] of 22.3% and an Activity [3] of 94.4%. It also gave an Activity [4] of 29.7%, an Activity [6] of 29.8% and an Activity [7] of 78.3%. It also gave an Activity [8] of 79.2%.
`CC1(C)S[C@@H]2[C@H](NC(=O)[C@H](N)c3ccccc3)C(=O)N2[C@H]1C(=O)O` [AMPICILLIN] showed an Activity [9] of 9.1%, an Activity [10] of 6.4% and an Activity [11] of 0%. The Activity [12] was 44.5%, the Activity [13] was 53% and the Activity [14] was 62.9%. For the same compound, the Activity [15] was 5.4% and the Activity [16] was 79.2%.
`CO/N=C(\C(=O)N[C@@H]1C(=O)N2C(C(=O)[O-])=C(C[N+]3(C)CCCC3)CS[C@H]12)c1csc(N)n1` [CEFEPIME] showed an Activity [1] of 0%, an Activity [2] of 9.9% and an Activity [3] of 98.6%. The Activity [4] was 8.1%, the Activity [5] was 98.5% and the Activity [6] was 10.6%. It also gave an Activity [8] of 91.6%.
Work on `NCC[C@H](O)C(=O)N[C@@H]1C[C@H](N)[C@@H](O[C@H]2O[C@H](CN)[C@@H](O)[C@H](O)[C@H]2O)[C@H](O)[C@H]1O[C@H]1O[C@H](CO)[C@@H](O)[C@H](N)[C@H]1O` [AMIKACIN] yielded an Activity [1] of 75%, an Activity [2] of 53.7% and an Activity [3] of 98.6%. For the same compound, the Activity [4] was 59.5%, the Activity [5] was 98.5% and the Activity [6] was 66%. It also gave an Activity [7] of 97% and an Activity [8] of 92.7%.
`C[C@H]1COc2c(N3CCN(C)CC3)c(F)cc3c(=O)c(C(=O)O)cn1c23.C[C@H]1COc2c(N3CCN(C)CC3)c(F)cc3c(=O)c(C(=O)O)cn1c23.O` [LEVOFLOXACIN] gave an Activity [1] of 50%, an Activity [2] of 24.8% and an Activity [3] of 97.2%. For the same compound, the Activity [4] was 32.4%, the Activity [5] was 87% and the Activity [6] was 40.4%. The Activity [7] was 79.8% and the Activity [8] was 83.2%.
`CO/N=C(\C(=O)N[C@@H]1C(=O)N2C(C(=O)O)=C(CSc3nc(=O)c(O)nn3C)CS[C@H]12)c1csc(N)n1` [CEFTRIAXONE] was tested, and the Activity [1] was 0%, the Activity [2] was 3.3% and the Activity [3] was 98.6%. It also gave an Activity [4] of 2.7%, an Activity [5] of 98.3% and an Activity [6] of 4.3%. It also gave an Activity [7] of 95.8% and an Activity [8] of 90.5%.
Compound `CC(C)(O/N=C(\C(=O)N[C@@H]1C(=O)N2C(C(=O)[O-])=C(C[n+]3ccccc3)CS[C@H]12)c1csc(N)n1)C(=O)O` [CEFTAZIDIME] has an Activity [1] of 0%, an Activity [2] of 5.8% and an Activity [3] of 98.6%. For the same compound, the Activity [4] was 8.1%, the Activity [5] was 97.2% and the Activity [6] was 0%. The Activity [7] was 94.3% and the Activity [8] was 91%.
`CO/N=C(\C(=O)N[C@@H]1C(=O)N2C(C(=O)O)=C(COC(C)=O)CS[C@H]12)c1csc(N)n1` [CEFOTAXIME] was tested, and the Activity [1] was 0%, the Activity [2] was 3.3% and the Activity [3] was 100%. For the same compound, the Activity [4] was 0%, the Activity [5] was 98.7% and the Activity [6] was 6.4%. The Activity [7] was 95.8% and the Activity [8] was 92.1%.
Work on `C[C@@H](O)[C@H]1C(=O)N2C(C(=O)O)=C(S[C@@H]3CN[C@H](C(=O)Nc4cccc(C(=O)O)c4)C3)[C@H](C)[C@H]12` [ERTAPENEM] yielded an Activity [1] of 100%, an Activity [2] of 99.2% and an Activity [3] of 100%. It also gave an Activity [4] of 100%, an Activity [5] of 99.3% and an Activity [6] of 83%. For the same compound, the Activity [7] was 98.9% and the Activity [8] was 93.3%.
